Values quoted from earlier work as cited in patent US11654140B2, “Treatment of ocular inflammatory diseases using laquinimod” (Active Biotech AB, priority 2012, dated 2023).

Test system: patients with a history of uveitis
Conditions: patients with a history of uveitis (Sergott, 2011); cited from earlier work

CCCCCCCCc1ccc(CCC(N)(CO)CO)cc1 [fingolimod]
risk of macular edema: known to pose a risk of macular edema
